Measured values published in article PMC10229121, “An acetylation-mediated chromatin switch governs H3K4 methylation read-write capability” (eLife, 2023).
Entries after “also recorded” stand apart in the source; their conditions may differ.

Test system: H3K4 methylation and H3 acetylation in MCF-7 breast cancer cells
Test: Middle-down mass spectrometry of histone H3 from MCF-7 cells ± KDAC inhibition (H3K4 methylation and H3 acetylation)
Format: cell-based
Conditions: for 0ac state, percent of total H3 / 1ac state, percent of total H3 / 2ac state, percent of total H3 / 3ac state, percent of total H3 / 4ac state, percent of total H3 / 5ac state, percent of total H3: MCF-7, 5 mM butyrate 1H; for percent H3K4me3: sheet percentsk4me3
Description: MCF-7 breast cancer cells (ATCC HTB-22) were grown in MEM (Gibco) supplemented with 10% fetal bovine serum (VWR), 100 I.U. penicillin, 100 µg/mL streptomycin (Corning), 0.01 mg/mL human recombinant insulin (Gibco), and 5 µg/mL plasmocin (Invivogen) at 37 °C and 5% CO2. HEK-293 (ATCC CRL-1573) was grown in DMEM (Gibco) supplemented with 10% fetal bovine serum (Corning), 100 I.U. penicillin, and 100 µg/mL streptomycin (Gibco) at 37 °C and 5% CO2. Both cell lines were authenticated via STR profiling and confirmed to be Mycoplasma negative.
For mass spectrometric (MS) analysis ± KDAC inhibition, cells were cultured in 150 mm dishes to ~80% confluence and treated with 5 mM sodium butyrate (or equivalent volume of water) in triplicate for 0, 10, 20, 30, 60, 120 min. […] Histones were acid extracted after nuclei isolation as described ([Holt et al., 2021]). Isolated histones were resuspended in 85 µL 5% acetonitrile, 0.2% trifluoroacetic acid (TFA), and resolved by offline high-performance liquid chromatography (HPLC) as described ([Holt et al., 2021]). […] After chromatographic separation and fraction collection, histone H3.1 was selected, diluted in 100 mM ammonium acetate (pH = 4), and digested with Glu-C protease (Roche) at 10:1 protein:enzyme for 1 hr at room temperature prior to mass spectrometric analysis.
The digested samples were diluted to 2 µg/µL. Online HPLC was performed on a U3000 RSLC nano Pro-flow system using a C3 column (Zorbax 300 SB-C3, 5 µm; Agilent). Samples were maintained at 4 °C and 1 µL injected for each analysis using a microliter pickup. […] The column eluant was introduced into an Orbitrap Fusion Lumos mass spectrometer (Thermo Fisher) by nano-electrospray ionization. A static spray voltage of 1900 V and an ion transfer tube temperature of 320 °C were set for the source.
A Fusion Lumos mass spectrometer was used to generate MS data. The 9th charge state of histone H3 was targeted for analysis. MS1 analysis was acquired in the orbitrap with a normal mass range and a 60 k resolution setting in positive ion mode. An Automatic Gain Control (AGC) target of 5.0E5 with a 200 ms maximum injection time, three microscans, and a scan range of 585–640 m/z was used to identify desired ions for fragmentation. MS2 acquisition was performed in both orbitrap and ion trap modes. Both modes used electron transfer dissociation (ETD), a reaction time of 18ms, and an injection time of 200 ms. A normal scan range was used for the orbitrap mode with a resolution setting of 30 k and an AGC target of 5.0E5, with two micro scans. A narrow scan range of 470–530 m/z, targeting ions indicative of K4 modification states, was used for the ion trap mode MS2 with an ACG target of 3.0E4, quadrupole isolation, maximum injection time of 100ms, and eight microscans.
These MS methods were used with two technical replicates per biological replicate (n=3). An MS ion trap mode with a targeted mass list was used to increase sensitivity to identify known low-abundance K4me3-containing proteoforms. The ion trap MS2 spectra were averaged for each H3 acetyl state based on known retention times, and the intensities of ions indicative of the K4 methylation states were manually recorded. Retention times for each acetyl state were approximated as 0ac 35–40 min, 1ac 45–55 min, 2ac 55–60 min, 3ac 62–68 min, 4ac 69–73 min, and 5ac 74–78 min. Precursor mass was used as an additional confirmation and filter of the correct acetyl state. For scans yielding low signal and high noise (i.e. 5ac at 0 min butyrate treatment), data were manually curated before averaging. Within acetyl states, the relative proportion of fragment ions for unmodified, mono-, di-, and tri-methylation of the H3K4 ion at respective m/z of 474, 488, 502, and 516 were recorded per MS run. Values were averaged across replicates of the same conditions and normalized to one hundred percent. A two-tailed t-test was used for significance. […]

CCCC(=O)O [sodium butyrate]
0ac state, percent of total H3 (AVG n=3): 38.12%
1ac state, percent of total H3 (AVG n=3): 25.98%
2ac state, percent of total H3 (AVG n=3): 20.63%
3ac state, percent of total H3 (AVG n=3): 12.03%
4ac state, percent of total H3 (AVG n=3): 2.14%
5ac state, percent of total H3 (AVG n=3): 1.10%
0ac state, percent of total H3 (normalized, replicate 1): 53.59%
1ac state, percent of total H3 (normalized, replicate 1): 15.56%
2ac state, percent of total H3 (normalized, replicate 1): 13.01%
3ac state, percent of total H3 (normalized, replicate 1): 15.85%
4ac state, percent of total H3 (normalized, replicate 1): 1.53%
5ac state, percent of total H3 (normalized, replicate 1): 0.47%
0ac state, percent of total H3 (normalized, replicate 2): 28.79%
1ac state, percent of total H3 (normalized, replicate 2): 37.29%
2ac state, percent of total H3 (normalized, replicate 2): 21.30%
3ac state, percent of total H3 (normalized, replicate 2): 8.21%
4ac state, percent of total H3 (normalized, replicate 2): 3.37%
5ac state, percent of total H3 (normalized, replicate 2): 1.05%
0ac state, percent of total H3 (normalized, replicate 3): 31.98%
1ac state, percent of total H3 (normalized, replicate 3): 25.08%
2ac state, percent of total H3 (normalized, replicate 3): 27.59%
3ac state, percent of total H3 (normalized, replicate 3): 12.04%
4ac state, percent of total H3 (normalized, replicate 3): 1.54%
5ac state, percent of total H3 (normalized, replicate 3): 1.77%
percent H3K4me3 (MCF-7, 5 mM butyrate 10M, 0ac, AVG n=3): 1.08%
percent H3K4me3 (MCF-7, 5 mM butyrate 10M, 1ac, AVG n=3): 0.40%
percent H3K4me3 (MCF-7, 5 mM butyrate 10M, 2ac, AVG n=3): 1.95%
percent H3K4me3 (MCF-7, 5 mM butyrate 10M, 3ac, AVG n=3): 2.18%
percent H3K4me3 (MCF-7, 5 mM butyrate 10M, 4ac, AVG n=3): 1.30%
percent H3K4me3 (MCF-7, 5 mM butyrate 10M, 5ac, AVG n=3): 0.42%
percent H3K4me3 (MCF-7, 5 mM butyrate 30M, 0ac, AVG n=3): 1.93%
percent H3K4me3 (MCF-7, 5 mM butyrate 30M, 1ac, AVG n=3): 1.29%
percent H3K4me3 (MCF-7, 5 mM butyrate 30M, 2ac, AVG n=3): 1.93%
percent H3K4me3 (MCF-7, 5 mM butyrate 30M, 3ac, AVG n=3): 1.64%
percent H3K4me3 (MCF-7, 5 mM butyrate 30M, 4ac, AVG n=3): 2.14%
percent H3K4me3 (MCF-7, 5 mM butyrate 30M, 5ac, AVG n=3): 4.20%
percent H3K4me3 (MCF-7, 5 mM butyrate 60M, 1ac, AVG n=3): 1.27%
percent H3K4me3 (MCF-7, 5 mM butyrate 60M, 2ac, AVG n=3): 1.44%
percent H3K4me3 (MCF-7, 5 mM butyrate 60M, 3ac, AVG n=3): 1.39%
percent H3K4me3 (MCF-7, 5 mM butyrate 120M, 0ac, AVG n=3): 1.23%
percent H3K4me3 (MCF-7, 5 mM butyrate 120M, 1ac, AVG n=3): 1.92%
percent H3K4me3 (MCF-7, 5 mM butyrate 120M, 2ac, AVG n=3): 2.41%
percent H3K4me3 (MCF-7, 5 mM butyrate 120M, 3ac, AVG n=3): 1.99%
percent H3K4me3 (MCF-7, 5 mM butyrate 120M, 4ac, AVG n=3): 4.58%
percent H3K4me3 (MCF-7, 5 mM butyrate 120M, 5ac, AVG n=3): 21.35%
H3K4 methylation, in words (MCF-7, 5 mM sodium butyrate): increase in all H3K4 methyl states relative to the unmodified state concomitant with increasing states of H3 acetylation; also recorded: H3K4me3 levels most dramatically increased in tandem with the 5ac H3 state; also recorded: H3K4 methylation increased for the most highly acetylated proteoforms
H3 poly-acetylation, in words (MCF-7, 5 mM sodium butyrate): H3 poly-acetylation rapidly increased
